# Read-outs that look alike come from different tables or passages of the source.
# Tests used:
# [1] = test system: complementary natural RNA oligomer; assay: Thermal dissociation (Tm) of duplexes with complementary RNA strand; assay type: binding; conditions: 150 mM NaCl; for Tm, melting temperature of the duplexes: 10 mM sodium phosphate buffer pH 7.4, ±0.5° C.
# Experimental: ^31P NMR spectra were obtained on a Varian 400 Mhz spectrometer. ^31P NMR spectra were referenced against 85% aqueous phosphoric acid. Anion exchange HPLC was performed using a Dionex DX 500 Chromatography System, with a Pharmacia Bitotech Mono Q HR 5/5 or 10/16 ion exchange columns. Mass spectral analysis was performed by Mass Consortium, San Diego, Calif. MALDI-TOF analysis of oligonucleotides was obtained using a PerSpective Biosystems Voyager Elite mass spectrometer with delayed extraction. Thermal dissociation experiments were conducted on a Cary Bio 100 UV-Vis spectrometer.
# Duplex formation properties of oligonucleotide phosphoramidates with complementary RNA strand were evaluated using thermal dissociation experiments. […] Also, the increase in the thermal stability of duplexes was similar to that observed for the phosphoramidate oligomers.
# [2] = test system: telomerase (affinity-purified extract from 293 cells over-expressing hTERT); assay: Bio-Tel FlashPlate telomerase activity assay; assay type: biochemical, human; conditions: telomerase inhibition
# HME50-5E cells = assay: Reduction of telomere length in tumor cells (TRF analysis); assay type: cell-based, human; conditions: for telomere length by TRF analysis: about 0.5 μM, measured at 10, 20, 40 and 80 days (FIG. 7)
# Experimental: Colonies of human breast epithelial cells (spontaneously immortalized) were prepared using standard methods and materials. Colonies were prepared by seeding 15-centimeter dishes with about 10^6 cells in each dish. The dishes were incubated to allow the cell colonies to grow to about 80% confluence, at which time each of the colonies were divided into two groups. One group was exposed to a subacute dose of thiophosphoramidate polynucleotide SEQ ID NO:2 at a predetermined concentration (e.g., between about 100 nM and about 20 μM) for a period of about 4-8 hours after plating following the split. The second group of cells were similarly exposed to mismatch control oligonucleotide SEQ ID NO:4.
# Each group of cells is then allowed to continue to divide, and the groups are split evenly again (near confluence). The same number of cells were seeded for continued growth. The test thiophosphoramidate oligonucleotide or control oligonucleotide was added every fourth day to the samples at the same concentration delivered initially. In one experiment the cells were additionally treated with FuGENE6™ (Boehringer-Mannhiem) following manufacturers instructions. FuGENE6™ enhances oligonucleotide uptake by the cells.
# Telomere length was determined by digesting the DNA of the cell samples using restriction enzymes specific for sequences other than the repetitive T2AG3 sequence of human telomeres (TRF analysis). The digested DNA was separated by size using standard techniques of gel electrophoresis to determine the lengths of the telomeric repeats, which appear, after probing with a telomere DNA probe, on the gel as a smear of high-molecular weight DNA (approximately 2 Kb-15 Kb). FIGS. 4 and 5 show examples of such experiments.
# The HME50-5E cells were incubated with one of the thiophosphoramidate polynucleotides shown in SEQ ID NOs:2 and 8. The mismatch oligonucleotide SEQ ID NO:4 was used as a control. All polynucleotides were used at a concentration of about 0.5 μM using the protocol described above. The length of the telomeres were measured at 10, 20, 40 and 80 days. […] In addition to the HME50-5E cells described above, this assay can be performed with any telomerase-positive cell line, such as HeLa cells or HEK-293 cells.
# [3] = 40% aqueous acetic acid at room temperature
# [4] = phosphoramidate backbone, read-out: IC50(nM) phosphoramidate
# [5] = thiophosphoramidate backbone, read-out: IC50(nM) thiophosphoramidate
substance,measurement,setting,value
"5′-GTTAGGGTTAG-3′ (listed as DNA, chemistry not fully specified) [SEQ ID NO:1 phosphoramidate]","−Tm, increase of Tm relative to the natural phosphodiester counterpart","[1]; 10 mM sodium phosphate buffer pH 7.4, listed as SEQ ID NO:1 np",27.9 °C
same,"Tm, melting temperature of the duplexes",[1]; listed as SEQ ID NO:1 np,72.1 °C
same,IC50,[2]; [4],1.9 nM
"5′-GTTAGGGTTAG-3′ (listed as DNA, chemistry not fully specified) [SEQ ID NO:1 thiophosphoramidate]","−Tm, increase of Tm relative to the natural phosphodiester counterpart","[1]; 10 mM sodium phosphate buffer pH 7.4, listed as SEQ ID NO:1 nps",27.3 °C
same,"Tm, melting temperature of the duplexes",[1]; listed as SEQ ID NO:1 nps,71.5 °C
same,IC50,[2]; [5],0.89 nM
"5′-GTTGAGTGTAG-3′ (listed as DNA, chemistry not fully specified) [SEQ ID NO:3 phosphoramidate, N3′→P5′ phosphoramidate mismatch control, reference compound]",IC50,[2]; [4],1000 nM
"5′-GTTGAGTGTAG-3′ (listed as DNA, chemistry not fully specified) [SEQ ID NO:3 thiophosphoramidate]",IC50,[2]; [5],177 nM
"5′-TAGGGTTAGACAA-3′ (thiophosphoramidate backbone, chemistry not fully specified) [SEQ ID NO:2 thiophosphoramidate]","−Tm, increase of Tm relative to the natural phosphodiester counterpart",[1]; 10 mM sodium phosphate buffer pH 7.4,24.8 °C
same,"Tm, melting temperature of the duplexes",[1],70.0 °C
same,IC50,[2]; [5],0.41 nM
same,telomere size compared to control cells,"HME50-5E cells; HME50-5E cells coincubated with FuGENE6, even at lowest concentration tested (100 nM) (FIG. 4)",telomere size was reduced compared to the control cells
same,telomere length by TRF analysis,HME50-5E cells; HME50-5E cells,effective in reducing telomere length
same,telomere length,"HME50-5E cells; HME50-5E cells, absence of FuGENE6, 1-20 μM (FIG. 4)",large decrease in telomere length
same,telomere length (inhibition of telomerase activity),HME50-5E cells; treatment of HME50-5E human breast epithelial cells,decrease in telomere length
5′-TAGGGTTAGACAA-3′ [SEQ ID NO:2 phosphoramidate],"−Tm, increase of Tm relative to the natural phosphodiester counterpart","[1]; 10 mM sodium phosphate buffer pH 7.4, listed as SEQ ID NO:2 np",26.5 °C
same,"Tm, melting temperature of the duplexes",[1]; listed as SEQ ID NO:2 np,71.7 °C
same,"Acid Stability, half-live of oligonucleotide",[3]; listed as SEQ ID NO:2 np,0.5 h
"5′-TAGGGTTAGACAA-3′ [SEQ ID NO:2 thiophosphoramidate] (thiophosphoramidate backbone, chemistry not fully specified)","Acid Stability, half-live of oligonucleotide",[3]; listed as SEQ ID NO:2 nps,6 h
"5′-TAGGTGTAAGCAA-3′ (listed as DNA, chemistry not fully specified) [SEQ ID NO:4 phosphoramidate, N3′→P5′ phosphoramidate mismatch control, reference compound]",IC50,[2]; [4],1000 nM
"5′-TAGGTGTAAGCAA-3′ (listed as DNA, chemistry not fully specified) [SEQ ID NO:4 thiophosphoramidate]",IC50,[2]; [5],79.3 nM
"CAGTTAGGGTTAG (listed as DNA, chemistry not fully specified) [SEQ ID NO:8 thiophosphoramidate]",telomere length by TRF analysis,HME50-5E cells; HME50-5E cells,effective in reducing telomere length
same,telomere size compared to control cells,HME50-5E cells; even at lowest concentration tested (1 nM) (FIG. 5),telomere size was reduced compared to the control cells
"GTTAGGGTTAG (unmodified DNA) [SEQ ID NO:1 po, natural phosphodiester oligomer]","Tm, melting temperature of the duplexes",[1],44.2 °C
"TAGGGTTAGACAA (DNA, all phosphodiester, methylation of C not given here) [SEQ ID NO:2 po, natural phosphodiester oligomer]","Tm, melting temperature of the duplexes",[1],45.2 °C

# — patent US6608036B1, “Oligonucleotide N3′→P5′ thiophosphoramidates: their synthesis and administration to treat neoplasms” (Geron Corporation, priority 1999, dated 2003)
